System: NCI-H929 complex spheroids, viability % test/control
Experiment: Anticancer human tumor NCI-H929 cell line growth inhibition [RAS];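 further: compound exposure lasted seven days before viability was read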
Details: for IC50: curve of first compound; for viability, T/C: stronger effect = lower value
Source text: RAS pathway inhibitors in Combinations in Complex Spheroids
A high-throughput screen of multi-cell type tumor spheroids was designed to identify active combinations of RAS pathway inhibitors and targeted small molecules. Complex spheroids include a stromal component modeled by human endothelial cells (HUVEC) and fibroblasts modeled by human mesenchymal stem cells (MSCs). The concentration ranges selected for each drug and investigational agent were based upon clinically achievable concentrations if the clinical Cmax of the agent was known.
Compounds. The drugs and investigational agents: abemaciclib (NSC768073), cobimetinib (NSC768068), divarasib (GDC6063, NSC841802), docetaxel (NSC628503), GDC-1971 (RLY-1971, NSC841576), gemcitabine (NSC613327), inavolisib (NSC800729), ipatasertib (NSC767898), KB-0742 (NSC834161), MRTX-1133 (NSC836407), osimertinib (NSC779217), RMC-4630 (NSC839698), RMC-6236 (NSC851965), RMC-6291 (NSC852671), Ro-3306 (NSC812927), sapanisertib (NSC764658), SN-38 (NSC673596), staurosporine (NSC755774), SY5609 (NSC837396), and tovorafenib (DAY101, NSC766906), were obtained from the National Cancer Institute (NCI) Developmental Therapeutics Program Chemical Repository. The FDA-approved anticancer drug set is available from the NCI Developmental Therapeutics Program. […] The stock solutions were prepared in dimethyl sulfoxide (DMSO, Sigma-Aldrich, St. Louis, MO, cat. D2650) at 800-fold the tested concentration and stored at -70 degrees C prior to their use. All drugs and investigational agents were tested over a range starting from a high concentration at or near the clinical Cmax and decreasing in half-log increments. If the clinical Cmax for an agent had not been determined, the highest concentration tested was 10 microM.
Cell Culture. All cells were maintained in an incubator at 37 degrees C and 5% CO2 with 95% humidity. The PDC lines were cultured according to standard operating procedures established by the NCI PDMR. All PDCs were thawed and cultured in Matrigel-coated flasks prepared with a working solution of 1X Ham's F-12 nutrient mix, without supplementation (Invitrogen, Waltham, MA, cat. 11765054), 100 U/mL penicillin-streptomycin (Invitrogen, cat. 15140122), and 2.5% Matrigel (Corning Inc., Corning, NY, cat. 354248) for the first three passages. The 362531-283-R-J2-PDC and 782815-120-R-J1-PDC lines were cultured in 6C/Colon 1B media, which includes advanced DMEM/F-12 (Thermo Fisher Scientific, cat. 12634028), 10 mM HEPES (Thermo Fisher Scientific, cat. 15630080), 1X GlutaMAX supplement (Thermo Fisher Scientific, cat. 35050061), 0.1 mg/mL primocin (InvivoGen, San Diego, CA, cat. ant-pm-2), 10% defined fetal bovine serum, heat inactivated (HyClone Laboratories Inc., Logan, UT, cat. SH30070.03HI), 50% L-WRN conditioned media (ATCC, cat. CRL-3276), 1.25 mM N-Acetyl-L-cysteine (Sigma-Aldrich, cat. A9165), 10 mM nicotinamide (Sigma-Aldrich, cat. N0636), 1X B-27 supplement (Thermo Fisher Scientific, cat. 17504044), 1X N-2 supplement (Thermo Fisher Scientific, cat. 17502048), 50 ng/mL human EGF (Thermo Fisher Scientific, cat. PHG0311), and 10 microM Y-27632 dihydrochloride (Tocris Bioscience, cat. 1254). The K12877-001-R-J1-PDC line was cultured in 6I media, which includes all 6C/Colon 1B media plus 10 ng/mL human FGF-10 (PeproTech, cat. 100-26), 1 ng/mL human FGF-2 (PeproTech, cat. 100-18B), 1 µM prostaglandin E2 (Tocris Bioscience, cat. 2296), […] hydrocortisone (Sigma-Aldrich, cat. H4001), and […] bovine insulin (Sigma-Aldrich, cat. I6634). The K86415-001-R-J1-PDC line was cultured in 6D media, which includes all 6C/Colon 1B media components minus the L-WRN conditioned media. The 485176-168-R4-J1-PDC was cultured in PANC media, which includes all 6C/Colon 1B media plus 100 ng/mL human FGF-10 (PeproTech, cat. 100-26), 500 nM SB-431542 (Selleckchem, cat. S1067), and 10 nM gastrin (Tocris Bioscience, cat. 3006). […]

[1] = second compound 0.0316 µM, first compound 0.0316 µM
[2] = second compound 0.0316 µM, first compound 0.1 µM
[3] = second compound 0.1 µM, first compound 0.0316 µM
[4] = second compound 0.1 µM, first compound 0.1 µM
[5] = second compound 0.316 µM, first compound 0.0316 µM
[6] = second compound 0.316 µM, first compound 0.1 µM
[7] = second compound 1 µM, first compound 0.0316 µM
[8] = second compound 1 µM, first compound 0.1 µM
[9] = second compound 3.16 µM, first compound 0.0316 µM
[10] = second compound 3.16 µM, first compound 0.1 µM
[11] = second compound 10 µM, first compound 0.0316 µM
[12] = second compound 10 µM, first compound 0.1 µM

CC(C)n1nc(-c2ccc3oc(N)nc3c2)c2c(N)ncnc21 + C#Cc1c(F)ccc2cc(O)cc(-c3ncc4c(N5CC6CCC(C5)N6)nc(OCC56CCCN5CC(F)C6)nc4c3F)c12
IC50 (second compound 0.0316 µM): 61.6 nM
IC50 (second compound 0.1 µM): 61.7 nM
IC50 (second compound 0.316 µM): 61.5 nM
IC50 (second compound 1 µM): 60.2 nM
IC50 (second compound 3.16 µM): 60.1 nM
IC50 (second compound 10 µM): 44.6 nM
viability, T/C (second compound 0.0316 µM, first compound 0.000316 µM): 96.7%
viability, T/C (second compound 0.0316 µM, first compound 0.001 µM): 97.5%
viability, T/C (second compound 0.0316 µM, first compound 0.00316 µM): 103%
viability, T/C (second compound 0.0316 µM, first compound 0.01 µM): 112%
viability, T/C [1]: 119%
viability, T/C [2]: 9.44%
viability, T/C (second compound 0.1 µM, first compound 0.000316 µM): 96%
viability, T/C (second compound 0.1 µM, first compound 0.001 µM): 101%
viability, T/C (second compound 0.1 µM, first compound 0.00316 µM): 105%
viability, T/C (second compound 0.1 µM, first compound 0.01 µM): 115%
viability, T/C [3]: 118%
viability, T/C [4]: 8.74%
viability, T/C (second compound 0.316 µM, first compound 0.000316 µM): 96.7%
viability, T/C (second compound 0.316 µM, first compound 0.001 µM): 108%
viability, T/C (second compound 0.316 µM, first compound 0.00316 µM): 104%
viability, T/C (second compound 0.316 µM, first compound 0.01 µM): 113%
viability, T/C [5]: 117%
viability, T/C [6]: 7.88%
viability, T/C (second compound 1 µM, first compound 0.000316 µM): 95%
viability, T/C (second compound 1 µM, first compound 0.001 µM): 99.2%
viability, T/C (second compound 1 µM, first compound 0.00316 µM): 109%
viability, T/C (second compound 1 µM, first compound 0.01 µM): 112%
viability, T/C [7]: 117%
viability, T/C [8]: 5.23%
viability, T/C (second compound 3.16 µM, first compound 0.000316 µM): 99.5%
viability, T/C (second compound 3.16 µM, first compound 0.001 µM): 101%
viability, T/C (second compound 3.16 µM, first compound 0.00316 µM): 107%
viability, T/C (second compound 3.16 µM, first compound 0.01 µM): 111%
viability, T/C [9]: 112%
viability, T/C [10]: 5.57%
viability, T/C (second compound 10 µM, first compound 0.000316 µM): 101%
viability, T/C (second compound 10 µM, first compound 0.001 µM): 97.2%
viability, T/C (second compound 10 µM, first compound 0.00316 µM): 100%
viability, T/C (second compound 10 µM, first compound 0.01 µM): 96.6%
viability, T/C [11]: 69.5%
viability, T/C [12]: 4.27%

C[C@@H](NC(=O)c1ncnc(N)c1Cl)c1ncc(C(=O)Nc2cc(C(F)(F)F)c(Cl)cn2)s1 + C#Cc1c(F)ccc2cc(O)cc(-c3ncc4c(N5CC6CCC(C5)N6)nc(OCC56CCCN5CC(F)C6)nc4c3F)c12
IC50 (second compound 0.0316 µM): > 10000 nM
IC50 (second compound 0.1 µM): > 10000 nM
IC50 (second compound 0.316 µM): > 10000 nM
IC50 (second compound 1 µM): > 10000 nM
IC50 (second compound 3.16 µM): > 10000 nM
IC50 (second compound 10 µM): > 10000 nM
viability, T/C [1]: 91.7%
viability, T/C [2]: 89%
viability, T/C (second compound 0.0316 µM, first compound 0.316 µM): 93.6%
viability, T/C (second compound 0.0316 µM, first compound 1 µM): 79.9%
viability, T/C (second compound 0.0316 µM, first compound 3.16 µM): 92.2%
viability, T/C (second compound 0.0316 µM, first compound 10 µM): 108%
viability, T/C [3]: 96.2%
viability, T/C [4]: 88.3%
viability, T/C (second compound 0.1 µM, first compound 0.316 µM): 89.4%
viability, T/C (second compound 0.1 µM, first compound 1 µM): 80.7%
viability, T/C (second compound 0.1 µM, first compound 3.16 µM): 95.1%
viability, T/C (second compound 0.1 µM, first compound 10 µM): 110%
viability, T/C [5]: 95.3%
viability, T/C [6]: 94%
viability, T/C (second compound 0.316 µM, first compound 0.316 µM): 91.5%
viability, T/C (second compound 0.316 µM, first compound 1 µM): 85.9%
viability, T/C (second compound 0.316 µM, first compound 3.16 µM): 96.4%
viability, T/C (second compound 0.316 µM, first compound 10 µM): 106%
viability, T/C [7]: 94.9%
viability, T/C [8]: 91.2%
viability, T/C (second compound 1 µM, first compound 0.316 µM): 94.8%
viability, T/C (second compound 1 µM, first compound 1 µM): 84.3%
viability, T/C (second compound 1 µM, first compound 3.16 µM): 84.1%
viability, T/C (second compound 1 µM, first compound 10 µM): 109%
viability, T/C [9]: 89.4%
viability, T/C [10]: 94.9%
viability, T/C (second compound 3.16 µM, first compound 0.316 µM): 82.6%
viability, T/C (second compound 3.16 µM, first compound 1 µM): 90.7%
viability, T/C (second compound 3.16 µM, first compound 3.16 µM): 89.8%
viability, T/C (second compound 3.16 µM, first compound 10 µM): 111%
viability, T/C [11]: 77.3%
viability, T/C [12]: 59.4%
viability, T/C (second compound 10 µM, first compound 0.316 µM): 79.2%
viability, T/C (second compound 10 µM, first compound 1 µM): 74.1%
viability, T/C (second compound 10 µM, first compound 3.16 µM): 92.1%
viability, T/C (second compound 10 µM, first compound 10 µM): 101%
